{"source": "DBAASP", "assay_in_all_cases": "≥ marks a high value that may be exact or a test limit, other limits are often not marked, values filed in µg/mL are converted to µM", "key": {"[1]": {"test_system": "Cutibacterium acnes ATCC 11828"}, "[2]": {"test_system": "Staphylococcus aureus NCTC 12493"}, "[3]": {"test_system": "Pseudomonas aeruginosa ATCC 9027"}, "[4]": {"test_system": "Cutibacterium acnes ATCC 31766"}, "[5]": {"test_system": "Cutibacterium acnes ATCC 32548"}, "[6]": {"test_system": "Klebsiella pneumoniae ATCC 43816"}, "[7]": {"test_system": "Cutibacterium acnes ATCC 18380"}, "[8]": {"test_system": "Staphylococcus aureus ATCC 6538"}, "[9]": {"test_system": "Klebsiella pneumoniae ATCC BAA-1705"}, "[10]": {"test_system": "Escherichia coli ATCC BAA-2340"}, "[11]": {"test_system": "Pseudomonas aeruginosa B004 V2S2B"}, "[12]": {"test_system": "Cutibacterium acnes ATCC 15725"}, "[13]": {"test_system": "Escherichia coli ATCC 25726"}, "[14]": {"test_system": "Staphylococcus aureus ATCC 25923"}, "[15]": {"test_system": "Enterococcus faecalis NCTC 12697"}, "[16]": {"test_system": "Escherichia coli ATCC 8739"}, "[17]": {"test_system": "Cutibacterium acnes ATCC 50247"}, "[18]": {"test_system": "Cutibacterium acnes ATCC 33257"}, "[19]": {"test_system": "Cutibacterium acnes ATCC 29903"}, "[20]": {"test_system": "Candida albicans ATCC 90028"}, "[21]": {"test_system": "Candida albicans ATCC 10231"}, "Staphylococcus aureus": {"test_system": "Staphylococcus aureus"}, "Streptococcus iniae": {"test_system": "Streptococcus iniae"}, "[22]": {"test_system": "Pseudomonas aeruginosa BCRC 10944"}, "[23]": {"test_system": "Streptococcus equinus BCRC 14729"}, "Vibrio harveyi": {"test_system": "Vibrio harveyi"}, "[24]": {"test_system": "Vibrio alginolyticus BCRC 12829"}, "[25]": {"test_system": "Staphylococcus xylosus BCRC 12930"}, "[26]": {"test_system": "Listeria monocytogenes BCRC 14845"}, "[27]": {"test_system": "Staphylococcus aureus BCRC 10780"}, "[28]": {"test_system": "Staphylococcus aureus BCRC 10781"}, "[29]": {"test_system": "Vibrio anguillarum serotype O1"}, "Vibrio alginolyticus": {"test_system": "Vibrio alginolyticus"}, "[30]": {"test_system": "Escherichia coli BCRC 10675"}, "Vibrio parahaemolyticus": {"test_system": "Vibrio parahaemolyticus"}, "[31]": {"test_system": "Klebsiella aerogenes BCRC 10370"}, "[32]": {"test_system": "Vibrio parahaemolyticus BCRC 10806"}, "[33]": {"test_system": "Enterobacter cloacae BCRC 10401"}, "[34]": {"test_system": "Klebsiella oxytoca BCRC 13985"}, "[35]": {"test_system": "Yersinia enterocolitica BCRC 13999"}, "Lactococcus garvieae": {"test_system": "Lactococcus garvieae"}, "Micrococcus luteus": {"test_system": "Micrococcus luteus"}, "[36]": {"test_system": "Staphylococcus aureus II ATCC 6538P"}, "Escherichia coli D21": {"test_system": "Escherichia coli D21"}, "[37]": {"test_system": "Pseudomonas aeruginosa ATCC 27853"}, "Staphylococcus simulans": {"test_system": "Staphylococcus simulans"}, "[38]": {"test_system": "Escherichia coli ATCC 25922"}, "[39]": {"test_system": "Acinetobacter baumannii ATCC 19606"}, "[40]": {"test_system": "Staphylococcus epidermidis LT1324"}, "Escherichia coli K-12": {"test_system": "Escherichia coli K-12"}, "[41]": {"test_system": "Staphylococcus aureus CIP 677"}, "[42]": {"test_system": "Staphylococcus aureus USA 300"}, "[43]": {"test_system": "Lactococcus lactis subsp. cremoris I116"}, "Escherichia coli L-": {"test_system": "Escherichia coli L-"}, "[44]": {"test_system": "Klebsiella pneumoniae CIP 8291"}, "Listeria ivanovii LMA 94": {"test_system": "Listeria ivanovii LMA 94"}}}
{"smiles": "CC[C@H](C)[C@H](NC(=O)[C@@H](NC(=O)CN)C(C)C)C(=O)N[C@H](C(=O)N[C@@H](CC(=O)O)C(=O)N[C@H](C(=O)N[C@@H](CC(C)C)C(=O)N[C@@H](CCCCN)C(=O)NCC(=O)N[C@@H](C)C(=O)N[C@@H](C)C(=O)N[C@@H](CCCCN)C(=O)N[C@H](C(=O)N[C@H](C(=O)N[C@@H](C)C(=O)N[C@@H](C)C(=O)N[C@@H](CCC(=O)O)C(=O)N[C@@H](CC(C)C)C(=O)N[C@@H](CC(C)C)C(=O)N[C@@H](CCCN=C(N)N)C(=O)N[C@@H](CCCCN)C(=O)N[C@@H](C)C(=O)N[C@@H](Cc1cnc[nH]1)C(=O)N[C@H]1CSSC[C@@H](C(=O)O)NC(=O)[C@H](CO)NC(=O)[C@H](CC(N)=O)NC(=O)[C@H]([C@@H](C)O)NC(=O)[C@H](CC(C)C)NC(=O)[C@H](CCCCN)NC1=O)C(C)C)[C@@H](C)O)[C@@H](C)O)[C@@H](C)CC", "note": "[GVIIDTLKGAAKTVAAELLRKAHCKLTNSC]", "values": [{"measurement": "MIC", "setting": "[1]", "value": 12.5, "unit": "µM"}, {"measurement": "MIC", "setting": "[2]", "value": "≥ 512", "unit": "µM"}, {"measurement": "MIC", "setting": "[3]", "value": 128, "unit": "µM"}, {"measurement": "MIC", "setting": "[4]", "value": 6, "unit": "µM"}, {"measurement": "MIC", "setting": "[5]", "value": 25, "unit": "µM"}, {"measurement": "MIC", "setting": "[6]", "value": "≥ 128", "unit": "µM"}, {"measurement": "MIC", "setting": "[7]", "value": 12.5, "unit": "µM"}, {"measurement": "MIC", "setting": "[8]", "value": 32, "unit": "µM"}, {"measurement": "MIC", "setting": "[9]", "value": "≥ 512", "unit": "µM"}, {"measurement": "MIC", "setting": "[10]", "value": "≥ 32", "unit": "µM"}, {"measurement": "MIC", "setting": "[11]", "value": "≥ 512", "unit": "µM"}, {"measurement": "MIC", "setting": "[12]", "value": 25, "unit": "µM"}, {"measurement": "MIC", "setting": "[13]", "value": "≥ 32", "unit": "µM"}, {"measurement": "MIC", "setting": "[14]", "value": 64, "unit": "µM"}, {"measurement": "MIC", "setting": "[15]", "value": "≥ 512", "unit": "µM"}, {"measurement": "MIC", "setting": "[16]", "value": 16, "unit": "µM"}, {"measurement": "MIC", "setting": "[17]", "value": 6, "unit": "µM"}, {"measurement": "MIC", "setting": "[18]", "value": 6, "unit": "µM"}, {"measurement": "MIC", "setting": "[19]", "value": 25, "unit": "µM"}, {"measurement": "MIC", "setting": "[20]", "value": "≥ 64", "unit": "µM"}, {"measurement": "MIC", "setting": "[21]", "value": "> 512", "unit": "µM"}, {"measurement": "MIC", "setting": "Staphylococcus aureus", "value": "> 512", "unit": "µM"}]}
{"smiles": "CC(C)C[C@H](NC(=O)[C@H](C)NC(=O)[C@H](CC(N)=O)NC(=O)[C@H](C)NC(=O)[C@H](Cc1ccccc1)NC(=O)[C@H](CCCCN)NC(=O)[C@H](CCCCN)NC(=O)[C@H](C)NC(=O)[C@H](CC(C)C)NC(=O)[C@H](CC(N)=O)NC(=O)[C@H](C)NC(=O)[C@H](CC(C)C)NC(=O)[C@H](CCCCN)NC(=O)[C@H](CCCCN)NC(=O)[C@H](C)NC(=O)[C@H](Cc1ccc(O)cc1)NC(=O)[C@H](CC(N)=O)NC(=O)[C@H](Cc1ccc(O)cc1)NC(=O)CN)C(=O)N[C@@H](Cc1c[nH]c2ccccc12)C(=O)O", "note": "[GYNYAKKLANLAKKFANALW]", "values": [{"measurement": "MIC", "setting": "Streptococcus iniae", "value": 28, "unit": "µM"}, {"measurement": "MIC", "setting": "[22]", "value": 14, "unit": "µM"}, {"measurement": "MIC", "setting": "[23]", "value": "≥ 56", "unit": "µM"}, {"measurement": "MIC", "setting": "Vibrio harveyi", "value": 3.5, "unit": "µM"}, {"measurement": "MIC", "setting": "[24]", "value": "≥ 56", "unit": "µM"}, {"measurement": "MIC", "setting": "[25]", "value": 3.5, "unit": "µM"}, {"measurement": "MIC", "setting": "[26]", "value": 7, "unit": "µM"}, {"measurement": "MIC", "setting": "[27]", "value": 7, "unit": "µM"}, {"measurement": "MIC", "setting": "[28]", "value": 14, "unit": "µM"}, {"measurement": "MIC", "setting": "[29]", "value": 1.75, "unit": "µM"}, {"measurement": "MIC", "setting": "Vibrio alginolyticus", "value": 1.75, "unit": "µM"}, {"measurement": "MIC", "setting": "[30]", "value": 3.5, "unit": "µM"}, {"measurement": "MIC", "setting": "Vibrio parahaemolyticus", "value": 1.75, "unit": "µM"}, {"measurement": "MIC", "setting": "[31]", "value": 7, "unit": "µM"}, {"measurement": "MIC", "setting": "[32]", "value": "≥ 56", "unit": "µM"}, {"measurement": "MIC", "setting": "[33]", "value": 3.5, "unit": "µM"}, {"measurement": "MIC", "setting": "[34]", "value": 7, "unit": "µM"}, {"measurement": "MIC", "setting": "[35]", "value": 14, "unit": "µM"}, {"measurement": "MIC", "setting": "Lactococcus garvieae", "value": 14, "unit": "µM"}]}
{"smiles": "CC(C)C[C@H](NC(=O)[C@H](CC(C)C)NC(=O)[C@H](CC(C)C)NC(=O)[C@H](CC(C)C)NC(=O)[C@H](CC(C)C)NC(=O)[C@H](CC(C)C)NC(=O)[C@H](CC(C)C)NC(=O)[C@H](CC(C)C)NC(=O)[C@H](CC(C)C)NC(=O)[C@H](CCCCN)NC(=O)[C@H](CCCCN)NC(=O)[C@@H](N)CCCCN)C(=O)N[C@@H](CCCCN)C(=O)N[C@@H](CCCCN)C(=O)N[C@@H](CCCCN)C(N)=O", "note": "[KKKLLLLLLLLLKKK]", "values": [{"measurement": "MIC", "setting": "Micrococcus luteus", "value": 16, "unit": "µM"}, {"measurement": "MIC", "setting": "[36]", "value": "≥ 50", "unit": "µM"}, {"measurement": "MIC", "setting": "Escherichia coli D21", "value": "≥ 50", "unit": "µM"}, {"measurement": "MIC", "setting": "[37]", "value": "> 50", "unit": "µM"}, {"measurement": "MIC", "setting": "Staphylococcus simulans", "value": "≥ 32", "unit": "µM"}, {"measurement": "MIC", "setting": "[38]", "value": 50, "unit": "µM"}, {"measurement": "MIC", "setting": "[39]", "value": 50, "unit": "µM"}, {"measurement": "MIC", "setting": "[40]", "value": "≥ 32", "unit": "µM"}]}
{"smiles": "CC[C@H](C)[C@H](NC(=O)[C@H](CCCCN)NC(=O)CNC(=O)[C@H](CC(C)C)NC(=O)[C@@H](NC(=O)[C@H](C)NC(=O)[C@H](CCCCN)NC(=O)CNC(=O)[C@H](C)NC(=O)CNC(=O)[C@H](CCCCN)NC(=O)[C@@H](NC(=O)[C@H](CCCCN)NC(=O)[C@@H](NC(=O)[C@H](Cc1c[nH]c2ccccc12)NC(=O)[C@H](CC(C)C)NC(=O)[C@H](CCC(=O)O)NC(=O)[C@H](CCCCN)NC(=O)[C@H](CC(C)C)NC(=O)[C@@H](N)CC(C)C)[C@@H](C)O)[C@@H](C)CC)C(C)C)C(=O)N[C@@H](CCCCN)C(=O)NCC(=O)N[C@@H](CC(C)C)C(=O)N[C@@H](CC(C)C)C(=O)O", "note": "[LLKELWTKIKGAGKAVLGKIKGLL]", "values": [{"measurement": "MIC", "setting": "Escherichia coli K-12", "value": 25, "unit": "µM"}, {"measurement": "MIC", "setting": "[41]", "value": "≥ 32", "unit": "µM"}, {"measurement": "MIC", "setting": "[42]", "value": "≥ 85", "unit": "µM"}, {"measurement": "MIC", "setting": "[43]", "value": 2, "unit": "µM"}, {"measurement": "MIC", "setting": "Escherichia coli L-", "value": "≥ 64", "unit": "µM"}, {"measurement": "MIC", "setting": "[44]", "value": "≥ 32", "unit": "µM"}, {"measurement": "MIC", "setting": "Listeria ivanovii LMA 94", "value": 4, "unit": "µM"}]}
